What all share (assay type): cell-based, human
For one test, the system named is MDA-MB-435. The test can be described thus: NCI60 one-dose screen, MDA-MB-435. Conditions: MDA-MB-435 (Melanoma); NCI 60 one-dose, 10^-5 M. On the procedure:
(§1) Anti-cancer activity screening of all compounds was performed by the NCI Developmental Therapeutics Program (DTP) through their NCI60 screening initiative. Assay details can be found at the website dtp.cancer.gov/discovery_development/nci-60/methodology.htm. Information from this website is reproduced here for convenience.
(§2) As of early 2007 all compounds submitted to the NCI 60 Cell screen are tested initially at a single high dose (10^-5 M) in the full NCI 60 cell panel. Only compounds which satisfy pre-determined threshold inhibition criteria in a minimum number of cell lines will progress to the full 5-dose assay. The threshold inhibition criteria for progression to the 5-dose screen was selected to efficiently capture compounds with anti-proliferative activity based on careful analysis of historical DTP screening data. The threshold criteria may be updated as additional data becomes available.
(§3) The One-dose data will be reported as a mean graph of the percent growth of treated cells and will be similar in appearance to mean graphs from the 5-dose assay. […]
(§4) Following drug addition, the plates are incubated for an additional 48 h at 37° C., 5% CO2, 95% air, and 100% relative humidity. […] Bound stain is subsequently solubilized with 10 mM trizma base, and the absorbance is read on an automated plate reader at a wavelength of 515 nm. […]

Another test has as its system OVCAR-8. The test can be described thus: NCI60 one-dose screen, OVCAR-8. Conditions: OVCAR-8 (Ovarian Cancer); NCI 60 one-dose, 10^-5 M. On the procedure:
as §1, §2, §3, §4

The subject of another test is RXF 393. Kind of test: NCI60 one-dose screen, RXF 393. To be noted: RXF 393 (Renal Cancer); NCI 60 one-dose, 10^-5 M. On the procedure: as §1, §2, §3, §4
The next test deals with HOP-62. The test can be described thus: NCI60 one-dose screen, HOP-62. Conditions: HOP-62 (Non-Small Cell Lung Cancer); NCI 60 one-dose, 10^-5 M. On the procedure: as §1, §2, §3, §4
In another test the test system is UO-31. Kind of test: NCI60 one-dose screen, UO-31. To be noted: UO-31 (Renal Cancer); NCI 60 one-dose, 10^-5 M. On the procedure:
as §1, §2, §3, §4

The subject of the next test is MALME-3M. Kind of test: NCI60 one-dose screen, MALME-3M. To be noted: MALME-3M (Melanoma); NCI 60 one-dose, 10^-5 M. As for the experimental part: as §1, §2, §3, §4
The next test relates to A549/ATCC. Kind of test: NCI60 one-dose screen, A549. Conditions: A549/ATCC (Non-Small Cell Lung Cancer); NCI 60 one-dose, 10^-5 M. As for the experimental part: as §1, §2
The One-dose data will be reported as a mean graph of the percent growth of treated cells and will be similar in appearance to mean graphs from the 5-dose assay. The number reported for the One-dose assay is growth relative to the no-drug control, and relative to the time zero number of cells. This allows detection of both growth inhibition (values between 0 and 100) and lethality (values less than 0). This is the same as for the 5-dose assay, described below. For example, a value of 100 means no growth inhibition. A value of 40 would mean 60% growth inhibition. A value of 0 means no net growth over the course of the experiment. A value of −40 would mean 40% lethality. A value of −100 means all cells are dead. Information from the One-dose mean graph is available for COMPARE analysis.
The human tumor cell lines of the cancer screening panel are grown in RPMI 1640 medium containing 5% fetal bovine serum and 2 mM L-glutamine. For a typical screening experiment, cells are inoculated into 96 well microtiter plates in 100 μL at plating densities ranging from 5,000 to 40,000 cells/well depending on the doubling time of individual cell lines. After cell inoculation, the microtiter plates are incubated at 37° C., 5% CO2, 95% air and 100% relative humidity for 24 h prior to addition of experimental drugs.
After 24 h, two plates of each cell line are fixed in situ with TCA, to represent a measurement of the cell population for each cell line at the time of drug addition (Tz). Experimental drugs are solubilized in dimethyl sulfoxide at 400-fold the desired final maximum test concentration and stored frozen prior to use. At the time of drug addition, an aliquot of frozen concentrate is thawed and diluted to twice the desired final maximum test concentration with complete medium containing 50 μg/ml gentamicin. Additional four, 10-fold or ½ log serial dilutions are made to provide a total of five drug concentrations plus control. Aliquots of 100 μl of these different drug dilutions are added to the appropriate microtiter wells already containing 100 μl of medium, resulting in the required final drug concentrations.
Following drug addition, the plates are incubated for an additional 48 h at 37° C., 5% CO2, 95% air, and 100% relative humidity. For adherent cells, the assay is terminated by the addition of cold TCA. Cells are fixed in situ by the gentle addition of 50 μl of cold 50% (w/v) TCA (final concentration, 10% TCA) and incubated for 60 minutes at 4° C. The supernatant is discarded, and the plates are washed five times with tap water and air dried. Sulforhodamine B (SRB) solution (100 μl) at 0.4% (w/v) in 1% acetic acid is added to each well, and plates are incubated for 10 minutes at room temperature. After staining, unbound dye is removed by washing five times with 1% acetic acid and the plates are air dried. Bound stain is subsequently solubilized with 10 mM trizma base, and the absorbance is read on an automated plate reader at a wavelength of 515 nm. […]

The next test relates to EKVX. Kind of test: NCI60 one-dose screen, EKVX. To be noted: EKVX (Non-Small Cell Lung Cancer); NCI 60 one-dose, 10^-5 M. On the procedure: as §1, §2, §3, §4
The test system of a further test is ACHN. Kind of test: NCI60 one-dose screen, ACHN. To be noted: ACHN (Renal Cancer); NCI 60 one-dose, 10^-5 M. On the procedure:
as §1, §2, §3, §4

The next test relates to MDA-MB-231/ATCC. Kind of test: NCI60 one-dose screen, MDA-MB-231. Conditions: MDA-MB-231/ATCC (Breast Cancer); NCI 60 one-dose, 10^-5 M. On the procedure: as §1, §2, §3, §4
In the next test the test system is NCI-H522. Kind of test: NCI60 one-dose screen, NCI-H522. To be noted: NCI-H522 (Non-Small Cell Lung Cancer); NCI 60 one-dose, 10^-5 M. As for the experimental part:
as §1, §2, §3, §4

The next test deals with NCI-H23. The test can be described thus: NCI60 one-dose screen, NCI-H23. To be noted: NCI-H23 (Non-Small Cell Lung Cancer); NCI 60 one-dose, 10^-5 M. On the procedure: as §1, §2, §3, §4
Another test relates to NCI60 Cell Line Panel. The test can be described thus: NCI60 one-dose screen, whole panel statistics. Conditions: mean over the NCI60 cell line panel, 10^-5 M. As for the experimental part: as §1, §2, §3, §4
The subject of another test is SF-295. The test can be described thus: NCI60 one-dose screen, SF-295. To be noted: SF-295 (CNS Cancer); NCI 60 one-dose, 10^-5 M. As for the experimental part: as §1, §2, §3, §4
The test system of another test is PC-3. The test can be described thus: NCI60 one-dose screen, PC-3. Conditions: PC-3 (Prostate Cancer); NCI 60 one-dose, 10^-5 M. As for the experimental part: as §1, §2, §3, §4
Another test concerns DU-145. The test can be described thus: NCI60 one-dose screen, DU-145. Conditions: DU-145 (Prostate Cancer); NCI 60 one-dose, 10^-5 M. As for the experimental part:
as §1, §2, §3, §4

In a further test the test system is OVCAR-3. Kind of test: NCI60 one-dose screen, OVCAR-3. To be noted: OVCAR-3 (Ovarian Cancer); NCI 60 one-dose, 10^-5 M. As for the experimental part: as §1, §2, §3, §4
For another test, the system named is UACC-257. The test can be described thus: NCI60 one-dose screen, UACC-257. To be noted: UACC-257 (Melanoma); NCI 60 one-dose, 10^-5 M. As for the experimental part:
as §1, §2, §3, §4

On to `CC(=O)N1c2ccccc2NC2=C(C(=O)N(C)C2(C)C)C1c1ccccc1` (stereo not drawn) [NUCC-60872], for which the “Growth Percent” value in the test with MDA-MB-435 is reported as −67.83%; in the test with OVCAR-8 it was 65.84%; in the test on RXF 393, 27.79%; with HOP-62 it was 61.59%; with UO-31, 81.99%; in the test on MALME-3M, 44.26%. In addition, the “Growth Percent” value stood at 80.32% in the test on A549/ATCC; 61.53% in the test with EKVX; 95.96% in the test with ACHN; 63.32% in the test with MDA-MB-231/ATCC; 18.58% in the test with NCI-H522; 50.21% in the test on NCI-H23. The “Growth Percent” value in the test on SF-295 is 45.97%; in the test on PC-3, 36.41%; in the test with DU-145, 78.98%; in the test on OVCAR-3, 18.09%; in the test with UACC-257 it was 36.37%. Also, the “Growth Percent, Mean” value with NCI60 Cell Line Panel amounted to 41.43%.
Consider `CC(=O)N1c2ccccc2NC2=C(C(=O)N(Cc3ccccc3)C2(C)C)C1c1ccco1` (stereo not drawn) [NUCC-608455], for which the “Growth Percent” value in the test with MDA-MB-435 is reported as −56.24%; in the test with OVCAR-8 it was 26.13%; in the test on RXF 393, −11.72%; in the test with HOP-62 it was 33.09%; with UO-31, 52.54%; in the test with MALME-3M, 69.89%. For the same compound, the “Growth Percent” value in the test on A549/ATCC is on record as 22.02%; with EKVX, 35.37%; in the test with ACHN, 33.51%; with MDA-MB-231/ATCC, 9.25%; with NCI-H522, 21.79%; in the test on NCI-H23, 20.85%. Moreover, the “Growth Percent” value is on record as −0.75% in the test on SF-295; 29.67% in the test with PC-3; 7.82% in the test on DU-145; −7.65% in the test with OVCAR-3; 77.61% with UACC-257. Moreover, in the test on NCI60 Cell Line Panel, the “Growth Percent, Mean” value is given as 23.48%.

Values taken from patent US12252492B2, “Substituted fused pyrrolo-diazepinones and uses thereof” (Northwestern University, priority 2018, dated 2025).
